Laboratory results as given in PubChem BioAssay (NCI).
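Where inhibition never reached the appropriate level, the endpoint shown equals the highest concentration tested. Otherwise, values were interpolated linearly from a five-concentration, 48-hour dose response in 96-well plates. TGI: concentration producing complete growth inhibition.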

Columns and labels:
Assay in all cases: growth of human tumour cells (NCI), 48 h
LXFL 529 NSCLC = tested on: LXFL 529 NSCLC
NCI-H522 lung = tested on: NCI-H522 lung
CAKI-1 renal = tested on: CAKI-1 renal
ACHN renal = tested on: ACHN renal
NCI-H460 lung = tested on: NCI-H460 lung
M19-MEL melanoma = tested on: M19-MEL melanoma
SN12C renal = tested on: SN12C renal
K-562 leukemia = tested on: K-562 leukemia
DMS 114 small cell lung = tested on: DMS 114 small cell lung
SF-295 CNS = tested on: SF-295 CNS
SF-268 CNS = tested on: SF-268 CNS
HT29 colon = tested on: HT29 colon
SNB-19 CNS = tested on: SNB-19 CNS
HOP-62 NSCLC = tested on: HOP-62 NSCLC
NCI-H226 lung = tested on: NCI-H226 lung
HOP-92 NSCLC = tested on: HOP-92 NSCLC
SF-539 CNS = tested on: SF-539 CNS
KM20L2 colon = tested on: KM20L2 colon
SK-MEL-5 melanoma = tested on: SK-MEL-5 melanoma
SW-620 colon = tested on: SW-620 colon
HCT-15 colon = tested on: HCT-15 colon
DMS 273 small cell lung = tested on: DMS 273 small cell lung
UACC-257 melanoma = tested on: UACC-257 melanoma
OVCAR-5 ovarian = tested on: OVCAR-5 ovarian
OVCAR-3 ovarian = tested on: OVCAR-3 ovarian
EKVX NSCLC = tested on: EKVX NSCLC
OVCAR-4 ovarian = tested on: OVCAR-4 ovarian
SR leukemia = tested on: SR leukemia
SK-MEL-28 melanoma = tested on: SK-MEL-28 melanoma
A549 NSCLC = tested on: A549 NSCLC
COLO 205 colon = tested on: COLO 205 colon
HL-60(TB) leukemia = tested on: HL-60(TB) leukemia
CCRF-CEM leukemia = tested on: CCRF-CEM leukemia
IGROV1 ovarian = tested on: IGROV1 ovarian
M14 melanoma = tested on: M14 melanoma
MALME-3M melanoma = tested on: MALME-3M melanoma
UACC-62 melanoma = tested on: UACC-62 melanoma
RPMI-8226 leukemia = tested on: RPMI-8226 leukemia
SK-MEL-2 melanoma = tested on: SK-MEL-2 melanoma
786-0 renal = tested on: 786-0 renal
A498 renal = tested on: A498 renal
HCC-2998 colon = tested on: HCC-2998 colon
OVCAR-8 ovarian = tested on: OVCAR-8 ovarian
LOX IMVI melanoma = tested on: LOX IMVI melanoma
TK-10 renal = tested on: TK-10 renal
NCI-H23 lung = tested on: NCI-H23 lung
DLD-1 colon = tested on: DLD-1 colon
UO-31 renal = tested on: UO-31 renal
SK-OV-3 ovarian = tested on: SK-OV-3 ovarian
SNB-78 CNS = tested on: SNB-78 CNS
KM12 colon = tested on: KM12 colon
MOLT-4 leukemia = tested on: MOLT-4 leukemia
HCT-116 colon = tested on: HCT-116 colon
RXF 393 renal = tested on: RXF 393 renal
U251 CNS = tested on: U251 CNS
SNB-75 CNS = tested on: SNB-75 CNS

With `O=C(c1nc2ccc(Cl)cc2[nH]c1=O)C(O)c1ccccc1` (centres undefined) the TGI (LXFL 529 NSCLC) was > 100 µM, the TGI (NCI-H522 lung) was > 100 µM and the TGI (CAKI-1 renal) was > 100 µM. The TGI (ACHN renal) was > 100 µM, the TGI (NCI-H460 lung) was > 100 µM and the TGI (M19-MEL melanoma) was > 100 µM. The TGI (SN12C renal) was > 100 µM, the TGI (K-562 leukemia) was > 100 µM and the TGI (DMS 114 small cell lung) was > 100 µM. For the same compound, the TGI (SF-295 CNS) was > 100 µM, the TGI (SF-268 CNS) was > 100 µM and the TGI (HT29 colon) was > 100 µM. The TGI (SNB-19 CNS) was > 100 µM, the TGI (HOP-62 NSCLC) was > 100 µM and the TGI (NCI-H226 lung) was > 100 µM. The TGI (HOP-92 NSCLC) was > 100 µM, the TGI (SF-539 CNS) was > 100 µM and the TGI (KM20L2 colon) was > 100 µM. For the same compound, the TGI (SK-MEL-5 melanoma) was > 100 µM, the TGI (SW-620 colon) was > 100 µM and the TGI (HCT-15 colon) was > 100 µM. The TGI (DMS 273 small cell lung) was > 100 µM, the TGI (UACC-257 melanoma) was > 100 µM and the TGI (OVCAR-5 ovarian) was > 100 µM. For the same compound, the TGI (OVCAR-3 ovarian) was > 100 µM, the TGI (EKVX NSCLC) was > 100 µM and the TGI (OVCAR-4 ovarian) was > 100 µM. The TGI (SR leukemia) was > 100 µM, the TGI (SK-MEL-28 melanoma) was > 100 µM and the TGI (A549 NSCLC) was > 100 µM. For the same compound, the TGI (COLO 205 colon) was > 100 µM, the TGI (HL-60(TB) leukemia) was 68.8 µM and the TGI (CCRF-CEM leukemia) was 25.4 µM. For the same compound, the TGI (IGROV1 ovarian) was > 100 µM, the TGI (M14 melanoma) was > 100 µM and the TGI (MALME-3M melanoma) was > 100 µM. For the same compound, the TGI (UACC-62 melanoma) was > 100 µM, the TGI (RPMI-8226 leukemia) was > 100 µM and the TGI (SK-MEL-2 melanoma) was > 100 µM. For the same compound, the TGI (786-0 renal) was > 100 µM, the TGI (A498 renal) was > 100 µM and the TGI (HCC-2998 colon) was > 100 µM. The TGI (OVCAR-8 ovarian) was > 100 µM, the TGI (LOX IMVI melanoma) was > 100 µM and the TGI (TK-10 renal) was > 100 µM. The TGI (NCI-H23 lung) was > 100 µM, the TGI (DLD-1 colon) was > 100 µM and the TGI (UO-31 renal) was > 100 µM. The TGI (SK-OV-3 ovarian) was > 100 µM, the TGI (SNB-78 CNS) was > 100 µM and the TGI (KM12 colon) was > 100 µM. For the same compound, the TGI (MOLT-4 leukemia) was > 100 µM and the TGI (HCT-116 colon) was > 100 µM.
With `CCCCCC(=O)N[C@H]1CCc2cc(O)c(O)c(O)c2-c2ccc(SC)c(=O)cc21` the TGI (LXFL 529 NSCLC) was 48.7 µM, the TGI (NCI-H522 lung) was 54.5 µM and the TGI (CAKI-1 renal) was 91.6 µM. For the same compound, the TGI (ACHN renal) was > 100 µM, the TGI (NCI-H460 lung) was > 100 µM and the TGI (M19-MEL melanoma) was 53.1 µM. For the same compound, the TGI (SN12C renal) was 42.7 µM, the TGI (K-562 leukemia) was > 49.9 µM and the TGI (RXF 393 renal) was > 100 µM. The TGI (DMS 114 small cell lung) was 24 µM, the TGI (SF-295 CNS) was 54.1 µM and the TGI (SF-268 CNS) was > 100 µM. The TGI (HT29 colon) was > 87.1 µM, the TGI (SNB-19 CNS) was > 100 µM and the TGI (HOP-62 NSCLC) was > 100 µM. For the same compound, the TGI (NCI-H226 lung) was 72.6 µM, the TGI (HOP-92 NSCLC) was 90.9 µM and the TGI (SF-539 CNS) was 45.3 µM. It also gave a TGI (KM20L2 colon) of 53.7 µM, a TGI (SK-MEL-5 melanoma) of 75.5 µM and a TGI (SW-620 colon) of 33.6 µM. For the same compound, the TGI (HCT-15 colon) was 42.9 µM, the TGI (DMS 273 small cell lung) was > 100 µM and the TGI (UACC-257 melanoma) was > 75.3 µM. The TGI (OVCAR-5 ovarian) was > 100 µM, the TGI (OVCAR-3 ovarian) was 99.6 µM and the TGI (EKVX NSCLC) was > 100 µM. The TGI (OVCAR-4 ovarian) was 44.7 µM, the TGI (SR leukemia) was 68.8 µM and the TGI (SK-MEL-28 melanoma) was > 100 µM. The TGI (A549 NSCLC) was > 100 µM, the TGI (COLO 205 colon) was 44.5 µM and the TGI (HL-60(TB) leukemia) was 51.2 µM. The TGI (CCRF-CEM leukemia) was > 76.9 µM, the TGI (U251 CNS) was > 73.8 µM and the TGI (IGROV1 ovarian) was > 100 µM. For the same compound, the TGI (M14 melanoma) was 36.7 µM, the TGI (MALME-3M melanoma) was > 100 µM and the TGI (UACC-62 melanoma) was 83.4 µM. For the same compound, the TGI (RPMI-8226 leukemia) was > 100 µM, the TGI (SK-MEL-2 melanoma) was 72.4 µM and the TGI (786-0 renal) was > 100 µM. The TGI (A498 renal) was 64.1 µM, the TGI (HCC-2998 colon) was > 79 µM and the TGI (OVCAR-8 ovarian) was > 59.8 µM. For the same compound, the TGI (SNB-75 CNS) was 78.5 µM, the TGI (LOX IMVI melanoma) was 44.3 µM and the TGI (TK-10 renal) was > 100 µM. For the same compound, the TGI (NCI-H23 lung) was 55 µM, the TGI (DLD-1 colon) was 40.6 µM and the TGI (UO-31 renal) was > 100 µM. The TGI (SK-OV-3 ovarian) was 66.2 µM, the TGI (SNB-78 CNS) was > 100 µM and the TGI (KM12 colon) was > 100 µM. The TGI (MOLT-4 leukemia) was 90.1 µM and the TGI (HCT-116 colon) was 33 µM.
